Patent US8669251B2, “8-fluorophthalazin-1(2H)-one compounds” (Genentech, Inc., priority 2011, dated 2014)

System: production of CD69 by B lymphocytes in human whole blood
Assay: CD69 Whole Blood Assay (CD69 Hu Blood FACS)
Format: cell-based
Details: human whole blood activated with goat F(ab')2 anti-human IgM, 20 hours; CD69 on CD20 positive cells by FACS; Table 2
How it was run: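 Heparinized human whole blood from drug-free non-smoking donors was preincubated 30 min at 37° C. with compound (ten-point three-fold series, duplicate). It was then stimulated with goat F(ab′)2 anti-human IgM (50 μg/ml final) for 20 hours, stained, lysed and read by flow cytometry as MFI. IC50/IC70/IC90 were derived by nonlinear regression.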

SMILES | CD69 Hu Blood FACS (IC70) [nM]
CN1CCn2nc(Nc3cc(-c4ccnc(-n5ncc6cc(C(C)(C)C)cc(F)c6c5=O)c4CO)nn(C)c3=O)cc2C1 [Compound 153, 6-tert-butyl-8-fluoro-2-[3-(hydroxymethyl)-4-[1-methyl-5-[(5-methyl-6,7-dihydro-4H-pyrazolo[1,5-a]pyrazin-2-yl)amino]-6-oxo-pyridazin-3-yl]-2-pyridyl]phthalazin-1-one] | 59.6
Cn1nc(-c2ccnc(-n3ncc4cc(C(C)(C)C)cc(F)c4c3=O)c2CO)cc(Nc2cc3n(n2)CCN(C2COC2)C3)c1=O [Compound 155, 6-tert-butyl-8-fluoro-2-[3-(hydroxymethyl)-4-[1-methyl-5-[[5-(oxetan-3-yl)-6,7-dihydro-4H-pyrazolo[1,5-a]pyrazin-2-yl]amino]-6-oxo-pyridazin-3-yl]-2-pyridyl]phthalazin-1-one] | 26.6
Cn1cc(-c2ccnc(-n3ncc4cc(C(C)(C)C)cc(F)c4c3=O)c2CO)cc(Nc2ccc(C(C)(C)C#N)cn2)c1=O [Compound 156, 2-[6-[[5-[2-(6-tert-butyl-8-fluoro-1-oxo-phthalazin-2-yl)-3-(hydroxymethyl)-4-pyridyl]-1-methyl-2-oxo-3-pyridyl]amino]-3-pyridyl]-2-methyl-propanenitrile] | 31
Cc1cc(Nc2cc(-c3ccnc(-n4ncc5cc(C(C)(C)C)cc(F)c5c4=O)c3CO)cn(C)c2=O)ns1 [Compound 157, 6-tert-butyl-8-fluoro-2-[3-(hydroxymethyl)-4-[1-methyl-5-[(5-methylisothiazol-3-yl)amino]-6-oxo-3-pyridyl]-2-pyridyl]phthalazin-1-one] | 157
CCc1cc(Nc2cc(-c3ccnc(-n4ncc5cc(C(C)(C)C)cc(F)c5c4=O)c3CO)cn(C)c2=O)no1 [Compound 158, 6-tert-butyl-2-[4-[5-[(5-ethylisoxazol-3-yl)amino]-1-methyl-6-oxo-3-pyridyl]-3-(hydroxymethyl)-2-pyridyl]-8-fluoro-phthalazin-1-one] | 66.7
Cn1cc(-c2ccnc(-n3ncc4cc(C(C)(C)C)cc(F)c4c3=O)c2CO)cc(Nc2cnn(C(F)F)n2)c1=O [Compound 159, 6-tert-butyl-2-[4-[5-[[2-(difluoromethyl)triazol-4-yl]amino]-1-methyl-6-oxo-3-pyridyl]-3-(hydroxymethyl)-2-pyridyl]-8-fluoro-phthalazin-1-one] | 208
Cn1cc(-c2ccnc(-n3ncc4cc(C(C)(C)C)cc(F)c4c3=O)c2CO)cc(Nc2cnccn2)c1=O [Compound 160, 6-tert-butyl-8-fluoro-2-[3-(hydroxymethyl)-4-[1-methyl-6-oxo-5-(pyrazin-2-ylamino)-3-pyridyl]-2-pyridyl]phthalazin-1-one] | 116
